Test results as given in patent US8129399B2, “Aminopyrimidines useful as kinase inhibitors” (Vertex Pharmaceuticals Incorporated, priority 2005, dated 2012).
Where two headings read alike, the source gives them in different places.

Assays:
[1] = molecular target: Aurora-1 (Aurora B) (Homo sapiens, UniProt Q96GD4); test: Aurora-1 (Aurora B) inhibition assay (radiometric); format: biochemical
Procedure: An assay buffer solution was prepared which consisted of 25 mM HEPES (pH 7.5), 10 mM MgCl2, 0.1% BSA and 10% glycerol. […] To 22 μL of the Aurora-B solution, in a 96-well plate, was added 2 μl of a compound stock solution in DMSO and the mixture allowed to equilibrate for 10 minutes at 25° C. The enzyme reaction was initiated by the addition of 16 μl stock [γ-^33P]-ATP solution (˜20 nCi/μL) prepared in assay buffer, to a final assay concentration of 800 μM. The reaction was stopped after 3 hours by the addition of 16 μL 500 mM phosphoric acid and the levels of ^33P incorporation into the peptide substrate were determined by the following method.
A phosphocellulose 96-well plate (Millipore, Cat no. MAPHNOB50) was pre-treated with 100 μL of a 100 mM phosphoric acid prior to the addition of the enzyme reaction mixture (40 μL). The solution was left to soak on to the phosphocellulose membrane for 30 minutes and the plate subsequently washed four times with 200 μL of a 100 mM phosphoric acid. […] Levels of non-enzyme catalyzed background radioactivity were determined by adding 16 μL of the 500 mM phosphoric acid to control wells, containing all assay components (which acts to denature the enzyme), prior to the addition of the [γ-^33P]-ATP solution. Levels of enzyme catalyzed ^33P incorporation were calculated by subtracting mean background counts from those measured at each inhibitor concentration. […] Ki values were calculated from initial rate data by non-linear regression using the Prism software package (Prism 3.0, Graphpad Software, San Diego, Calif.).

[2] = system: Colo205 cells; test: Colo205 cell proliferation, 3H thymidine incorporation; format: cell-based; conditions: Homo sapiens
Procedure: Colo205 cells were seeded in 96 well plates and serially diluted compound was added to the wells in duplicate. Control groups included untreated cells, the compound diluent (0.1% DMSO alone) and culture medium without cells.
To measure proliferation, 3 h prior to the end of the experiment 0.5 μCi of 3H thymidine was added to each well. Cells were then harvested and the incorporated radioactivity counted on a Wallac microplate beta-counter. Cell viability was assessed using Promega CellTiter 96AQ to measure MTS conversion. Dose response curves were calculated using either Prism 3.0 (GraphPad) or SoftMax Pro 4.3.1 LS (Molecular Devices) software.

[3] = molecular target: JAK-2 (Homo sapiens, UniProt O60674); test: JAK2 inhibition assay; format: biochemical; conditions: 12 μM ATP
Sequence of JAK-2 (O60674 whole entry, species assumed): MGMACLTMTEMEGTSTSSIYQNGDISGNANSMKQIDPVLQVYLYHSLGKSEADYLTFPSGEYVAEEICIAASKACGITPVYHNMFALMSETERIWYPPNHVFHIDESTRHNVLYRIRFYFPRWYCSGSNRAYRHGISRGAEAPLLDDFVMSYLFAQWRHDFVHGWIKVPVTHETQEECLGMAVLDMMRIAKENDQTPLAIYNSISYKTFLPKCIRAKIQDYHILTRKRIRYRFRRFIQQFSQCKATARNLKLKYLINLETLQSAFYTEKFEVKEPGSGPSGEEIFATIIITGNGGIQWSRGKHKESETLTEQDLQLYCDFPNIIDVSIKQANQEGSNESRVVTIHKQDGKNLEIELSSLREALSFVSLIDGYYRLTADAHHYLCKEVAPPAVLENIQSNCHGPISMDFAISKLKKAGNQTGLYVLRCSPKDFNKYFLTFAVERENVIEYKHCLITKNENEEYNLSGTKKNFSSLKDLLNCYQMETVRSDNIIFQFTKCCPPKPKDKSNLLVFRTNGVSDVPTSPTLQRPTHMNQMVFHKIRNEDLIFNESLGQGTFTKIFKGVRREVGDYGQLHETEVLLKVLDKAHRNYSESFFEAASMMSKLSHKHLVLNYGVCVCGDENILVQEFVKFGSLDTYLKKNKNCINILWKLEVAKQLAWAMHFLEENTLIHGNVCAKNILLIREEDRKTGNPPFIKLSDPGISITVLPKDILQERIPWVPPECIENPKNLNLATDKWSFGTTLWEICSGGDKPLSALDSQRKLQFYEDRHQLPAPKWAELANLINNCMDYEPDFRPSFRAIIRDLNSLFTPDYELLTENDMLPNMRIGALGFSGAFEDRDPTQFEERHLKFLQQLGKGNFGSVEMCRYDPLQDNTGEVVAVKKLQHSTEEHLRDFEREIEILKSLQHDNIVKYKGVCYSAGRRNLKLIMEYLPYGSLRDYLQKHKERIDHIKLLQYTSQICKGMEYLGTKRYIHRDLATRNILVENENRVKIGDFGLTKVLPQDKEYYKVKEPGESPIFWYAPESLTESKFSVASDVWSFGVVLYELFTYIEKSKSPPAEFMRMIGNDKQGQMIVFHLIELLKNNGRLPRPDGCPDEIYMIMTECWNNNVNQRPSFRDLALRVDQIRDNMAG

[4] = molecular target: T1, JAK3 (Homo sapiens, UniProt P52333); test: JAK3 inhibition assay; format: biochemical
T1 sequence (P52333 1-1124): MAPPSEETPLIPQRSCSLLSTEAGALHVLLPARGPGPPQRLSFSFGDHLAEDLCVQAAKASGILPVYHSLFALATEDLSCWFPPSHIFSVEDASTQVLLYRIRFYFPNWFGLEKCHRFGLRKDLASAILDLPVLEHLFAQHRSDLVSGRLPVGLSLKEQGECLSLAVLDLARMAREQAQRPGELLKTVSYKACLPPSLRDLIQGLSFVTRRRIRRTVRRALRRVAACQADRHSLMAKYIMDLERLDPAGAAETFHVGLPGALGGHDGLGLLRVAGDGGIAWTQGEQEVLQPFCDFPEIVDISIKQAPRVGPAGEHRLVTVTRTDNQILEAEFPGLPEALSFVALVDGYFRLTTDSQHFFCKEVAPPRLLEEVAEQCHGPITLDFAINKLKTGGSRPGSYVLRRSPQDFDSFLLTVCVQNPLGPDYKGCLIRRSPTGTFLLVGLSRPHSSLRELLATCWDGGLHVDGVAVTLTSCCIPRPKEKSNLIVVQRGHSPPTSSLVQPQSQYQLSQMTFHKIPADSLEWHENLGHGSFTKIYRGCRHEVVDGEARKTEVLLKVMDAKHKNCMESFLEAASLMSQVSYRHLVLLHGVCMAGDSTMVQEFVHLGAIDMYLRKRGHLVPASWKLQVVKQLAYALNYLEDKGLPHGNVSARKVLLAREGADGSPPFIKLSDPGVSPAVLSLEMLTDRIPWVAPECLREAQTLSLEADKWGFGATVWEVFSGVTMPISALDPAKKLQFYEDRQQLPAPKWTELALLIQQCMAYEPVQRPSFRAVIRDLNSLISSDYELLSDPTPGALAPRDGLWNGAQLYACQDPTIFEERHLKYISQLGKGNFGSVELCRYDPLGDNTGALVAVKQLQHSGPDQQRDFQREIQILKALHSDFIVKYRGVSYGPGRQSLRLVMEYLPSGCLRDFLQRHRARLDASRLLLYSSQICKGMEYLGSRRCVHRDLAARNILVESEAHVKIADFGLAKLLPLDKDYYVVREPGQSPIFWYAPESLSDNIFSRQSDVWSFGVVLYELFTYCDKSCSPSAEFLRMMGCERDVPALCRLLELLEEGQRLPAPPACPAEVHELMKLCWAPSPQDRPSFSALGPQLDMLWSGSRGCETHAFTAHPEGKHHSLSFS
Procedure: Reactions were carried out in a kinase buffer containing 100 mM HEPES (pH 7.4), 1 mM DTT, 10 mM MgCl2, 25 mM NaCl, and 0.01% BSA. Substrate concentrations in the assay were 5 μM ATP (200 uCi/μmole ATP) and 1 μM poly(Glu)4Tyr. Reactions were carried out at 25° C. and 1 nM JAK3.
To each well of a 96 well polycarbonate plate was added 1.5 μl of a candidate JAK3 inhibitor along with 50 μl of kinase buffer containing 2 μM poly(Glu)4Tyr and 10 μM ATP. This was then mixed and 50 μl of kinase buffer containing 2 nM JAK3 enzyme was added to start the reaction. After 20 minutes at room temperature (25 C), the reaction was stopped with 50 μl of 20% trichloroacetic acid (TCA) that also contains 0.4 mM ATP. The entire contents of each well were then transferred to a 96 well glass fiber filter plate using a TomTek Cell Harvester. After washing, 60 μl of scintillation fluid was added and ^33P incorporation detected on a Perkin Elmer TopCount.

[5] = 800 μM ATP, read-out: Aurora B Ki
[6] = COLO 205, read-out: Colo205 inh 3H-Thy incorporation after 72 hours IC50 (uM)
[7] = COLO 205, read-out: Colo205 inh 3H-Thy incorporation after 96 hours IC50 (uM)

Sequence of Aurora-1 (Aurora B) (Q96GD4 whole entry): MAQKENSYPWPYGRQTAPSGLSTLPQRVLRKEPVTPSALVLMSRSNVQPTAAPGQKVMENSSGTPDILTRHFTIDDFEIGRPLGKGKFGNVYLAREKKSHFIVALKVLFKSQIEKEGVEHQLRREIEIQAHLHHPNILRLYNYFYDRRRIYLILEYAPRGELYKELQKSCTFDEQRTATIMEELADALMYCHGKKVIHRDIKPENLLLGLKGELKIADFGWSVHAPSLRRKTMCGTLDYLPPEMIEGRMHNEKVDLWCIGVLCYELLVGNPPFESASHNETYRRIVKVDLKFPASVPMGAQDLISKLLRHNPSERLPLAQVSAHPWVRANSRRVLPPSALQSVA

Compound	Ki [1, 5] [nM]	IC50 [2, 6] [µM]	IC50 [2, 7] [µM]	Ki [3] [nM]	Ki [4] [nM]	Ki [1] [nM]
Cc1cc(Nc2cc(N3CC(O)(C4CC4)C3)nc(Sc3ccc(NC(=O)C4CC4)cc3)n2)n[nH]1 [Compound I-8]	7.1	0.04	0.033	41	140	
Cc1cc(Nc2cc(N3CC(O)(C4CC4)C3)nc(Sc3ccc(NC(=O)C4CC4)cc3F)n2)[nH]n1 [Compound I-11, N-(4-((4-(3-methyl-1H-pyrazol-5-ylamino)-6-(3-cyclopropyl-3-hydroxyazetidin-1-yl)pyrimidin-2-yl)sulfanyl)-3-fluorophenyl)cyclopropanecarboxamide]	9		0.028	15	56	
Cc1cc(Nc2cc(N3CC(F)(C4CC4)C3)nc(Sc3ccc(NC(=O)CC(F)(F)F)nc3)n2)[nH]n1 [Compound I-21, N-(5-(4-(3-methyl-1H-pyrazol-5-ylamino)-6-(3-cyclopropyl-3-fluoroazetidin-1-yl)pyrimidin-2-ylthio)pyridin-2-yl)-3,3,3-trifluoropropanamide]	9.5	0.02		28	100	
Cc1cc(Nc2cc(N3CC(O)(C4CC4)C3)nc(Sc3ccc(NC(=O)C4CCCC4)cc3)n2)[nH]n1 [Compound I-9, N-(4-((4-(3-methyl-1H-pyrazol-5-ylamino)-6-(3-cyclopropyl-3-hydroxyazetidin-1-yl)pyrimidin-2-yl)sulfanyl)phenyl)cyclopentanecarboxamide]	< 6		0.016	22	150	
CCC(=O)Nc1ccc(Sc2nc(Nc3cc(C)n[nH]3)cc(N3CC(O)(C(C)C)C3)n2)cc1 [Compound I-5]	14		0.033	26	100	
CCC(=O)Nc1ccc(Sc2nc(Nc3cc(C)n[nH]3)cc(N3CC(O)(C4CC4)C3)n2)cc1 [Compound I-2]	7.6	0.026	0.026	26	160	
Cc1cc(Nc2cc(N3CC(F)(C4CC4)C3)nc(Sc3ccc(NC(=O)CC4CC4)cc3)n2)[nH]n1 [Compound I-19]	21	0.05		130	620	
Cc1cc(Nc2cc(N3CC(F)(C4CC4)C3)nc(Sc3ccc(NC(=O)CC(F)(F)F)cc3)n2)[nH]n1 [Compound I-14, N-(4-(4-(3-methyl-1H-pyrazol-5-ylamino)-6-(3-cyclopropyl-3-fluoroazetidin-1-yl)pyrimidin-2-ylthio)phenyl)-3,3,3-trifluoropropanamide]	6.8	0.006	0.006	11	77	
Cc1cc(Nc2cc(N3CC(F)(C4CC4)C3)nc(Sc3ccc(NC(=O)C4CC4)cc3F)n2)n[nH]1 [Compound I-18]		0.027		360	220	18
CCC(=O)Nc1ccc(Sc2nc(Nc3cc(C)n[nH]3)cc(N3CC(O)(C4CCCC4)C3)n2)cc1 [Compound I-3]	6.5	0.002	0.004	34	150	
CCC(=O)Nc1ccc(Sc2nc(Nc3cc(C)n[nH]3)cc(N3CC(O)(C(C)CC)C3)n2)cc1 (stereo not drawn) [Compound I-6]			0.024	44	190	6.2
Cc1cc(Nc2cc(N3CC(F)(C4CC4)C3)nc(Sc3ccc(NC(=O)C4CC4)cc3)n2)n[nH]1 [Compound I-13]	22	0.072	0.039	110	290	
Cc1cc(Nc2cc(N3CC(O)(C4CC4)C3)nc(Sc3ccc(NC(=O)C4CC4(F)F)cc3)n2)[nH]n1 (stereo not drawn) [Compound I-12]	3	0.019		2.9	28	
O=C(Nc1ccc(Sc2nc(Nc3cc(C4CC4)[nH]n3)cc(N3CC(O)(C4CC4)C3)n2)cc1)C1CC1 [Compound I-10]	7		0.042	54	51	
CCC(=O)Nc1ccc(Sc2nc(Nc3cc(C4CC4)[nH]n3)cc(N3CC(O)(C4CC4)C3)n2)cc1 [Compound I-7]	< 6		0.022	23	37	
Cc1cc(Nc2cc(N3CC(F)(C4CC4)C3)nc(Sc3ccc(NC(=O)C4CC4(F)F)cc3)n2)[nH]n1 (stereo not drawn) [Compound I-20]	18	0.012		51	110	
